Assay results published in ChEMBL document CHEMBL4270519, “Synthesis and biological evaluation of β2-adrenoceptor agonists bearing the 2-amino-2-phenylethanol scaffold” (Eur J Med Chem, 2018).

Assays:
[1] = target: Beta-1 adrenergic receptor (Homo sapiens, UniProt P08588); assay: Agonist activity at human beta1 adrenergic receptor expressed in HEK293 cells assessed as increase in cAMP accumulation after 60 mins by HTRF assay; type: functional, cell-based
[2] = target: T1, Beta-2 adrenergic receptor (Homo sapiens, UniProt P07550); assay: Intrinsic activity at human beta2 adrenergic receptor in HEK293 cells assessed as increase in cAMP accumulation after 60 mins by HTRF assay relative to isoprenaline; type: functional, cell-based
Target sequence in this assay (P07550 whole entry, looked up): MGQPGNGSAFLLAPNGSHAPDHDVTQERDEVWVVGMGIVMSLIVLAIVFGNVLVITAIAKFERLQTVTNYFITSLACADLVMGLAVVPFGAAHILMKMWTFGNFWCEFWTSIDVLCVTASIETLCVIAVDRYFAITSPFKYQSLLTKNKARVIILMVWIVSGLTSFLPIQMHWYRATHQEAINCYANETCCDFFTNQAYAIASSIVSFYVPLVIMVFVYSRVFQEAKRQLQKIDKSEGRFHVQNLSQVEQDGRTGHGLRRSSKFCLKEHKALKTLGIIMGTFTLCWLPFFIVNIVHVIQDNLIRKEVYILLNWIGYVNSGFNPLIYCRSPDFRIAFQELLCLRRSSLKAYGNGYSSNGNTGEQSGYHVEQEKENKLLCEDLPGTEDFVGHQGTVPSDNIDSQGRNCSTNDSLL

[3] = test system: Smooth muscle of trachea; assay: Intrinsic activity at Dunkin-Hartley guinea pig tracheal smooth muscle ring assessed as reduction in histamine-induced muscle contractions by measuring muscle tone relative to isoprenaline; type: functional, Cavia porcellus
[4] = target: Beta-3 adrenergic receptor (Homo sapiens, UniProt P13945); assay: Agonist activity at human beta3 adrenergic receptor expressed in HEK293 cells assessed as increase in cAMP accumulation after 60 mins by HTRF assay; type: functional, cell-based
Beta-3 adrenergic receptor, sequence (P13945 whole entry): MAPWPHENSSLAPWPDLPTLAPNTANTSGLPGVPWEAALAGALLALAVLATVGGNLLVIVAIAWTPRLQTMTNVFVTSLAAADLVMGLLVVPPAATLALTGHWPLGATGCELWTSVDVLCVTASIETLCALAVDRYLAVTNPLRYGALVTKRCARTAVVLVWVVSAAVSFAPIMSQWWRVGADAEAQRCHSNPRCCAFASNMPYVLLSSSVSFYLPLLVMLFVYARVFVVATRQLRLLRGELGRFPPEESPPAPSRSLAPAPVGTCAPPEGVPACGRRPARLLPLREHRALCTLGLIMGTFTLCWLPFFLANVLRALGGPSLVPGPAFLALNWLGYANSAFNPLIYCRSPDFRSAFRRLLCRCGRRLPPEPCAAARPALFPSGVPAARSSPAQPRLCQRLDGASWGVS

[5] = organism: Homo sapiens; assay: Selectivity ratio of pEC50 for human beta2 adrenergic receptor expressed in HEK293 cells to pEC50 for human beta1 adrenergic receptor expressed in HEK293 cells; type: cell-based
[6] = test system: Smooth muscle of trachea; assay: Reduction in histamine-induced muscle contractions in Dunkin-Hartley guinea pig tracheal smooth muscle ring by measuring muscle tone; type: functional, Cavia porcellus
[7] = test system: Smooth muscle of trachea; assay: Reduction in histamine-induced muscle contractions in Dunkin-Hartley guinea pig tracheal smooth muscle ring by measuring muscle tone relative to control; type: functional; details: Cavia porcellus
[8] = target: T1, Beta-2 adrenergic receptor; assay: Agonist activity at human beta2 adrenergic receptor expressed in HEK293 cells assessed as increase in cAMP accumulation after 60 mins by HTRF assay; type: functional, cell-based
Target sequence in this assay (P07550 whole entry): as the sequence (P07550 whole entry, looked up) above

[9] = Half life in human liver microsomes at 10 uM by LC/MS/MS analysis; type: ADME, microsome
[10] = Intrinsic clearance in human liver microsomes at 10 uM after 10 mins in presence of NADPH by LC/MS/MS analysis; type: ADME, microsome; details: read-out: CLH
[11] = Apparent permeability from basolateral to apical side in human Caco2 cells at 2 uM after 2 hrs by LC/MS/MS analysis; type: ADME, cell-based; details: Caco-2
[12] = Apparent permeability from apical to basolateral side in human Caco2 cells at 2 uM after 2 hrs by LC/MS/MS analysis; type: ADME, cell-based; details: Caco-2

Beta-1 adrenergic receptor, sequence (P08588 whole entry): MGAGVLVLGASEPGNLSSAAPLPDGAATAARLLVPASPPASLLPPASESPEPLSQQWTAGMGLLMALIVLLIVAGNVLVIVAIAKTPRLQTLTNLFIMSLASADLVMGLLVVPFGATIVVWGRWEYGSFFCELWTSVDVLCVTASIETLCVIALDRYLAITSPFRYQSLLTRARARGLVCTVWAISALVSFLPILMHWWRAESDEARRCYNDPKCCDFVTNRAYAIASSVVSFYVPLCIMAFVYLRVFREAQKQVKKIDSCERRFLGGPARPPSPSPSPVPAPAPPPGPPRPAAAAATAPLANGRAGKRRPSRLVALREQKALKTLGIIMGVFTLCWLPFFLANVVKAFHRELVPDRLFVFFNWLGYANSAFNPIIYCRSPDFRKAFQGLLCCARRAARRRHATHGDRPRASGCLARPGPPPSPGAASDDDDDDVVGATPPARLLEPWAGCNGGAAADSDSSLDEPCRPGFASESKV

**Q.** Which results are given for `O=c1ccc2c(C(CO)NCCc3ccccc3)ccc(O)c2[nH]1` (stereo not drawn)?
**A.** EC50 [1]: 832 nM; Intrinsic activity [2]: 57.4%; Intrinsic activity [3]: 100%; EC50 [4]: > 10000 nM; Ratio [5]: 2.72; pD2 [6]: 7.81; Emax [7]: 255%; EC50 ([8]; read-out: pEC50 (converted)): 1.58 nM

**Q.** With `O=c1ccc2c(C(CO)NCCc3ccc(Cl)cc3)ccc(O)c2[nH]1` (stereo not drawn) as the compound, how does the EC50 [1] read?
**A.** 1580 nM

**Q.** What about the Ratio [5] of the same compound?
**A.** 1.6

**Q.** What about the EC50 ([8]; read-out: pEC50 (converted)) of the same compound?
**A.** 39.8 nM

**Q.** Which EC50 [1] does the source give for `O=c1ccc2c(C(CO)NCCCc3ccccc3)ccc(O)c2[nH]1` (stereo not drawn) here?
**A.** 832 nM

**Q.** What about the Intrinsic activity [2] of the same compound?
**A.** 55.8%

**Q.** And the EC50 [4]?
**A.** > 10000 nM

**Q.** And the Ratio [5]?
**A.** 1.89

**Q.** What about the EC50 ([8]; read-out: pEC50 (converted)) of the same compound?
**A.** 10 nM

**Q.** Which EC50 ([8]; read-out: pEC50 (converted)) does the source give for `CC(C)C(=O)Nc1ccc(CCNC(CO)c2ccc(O)c3[nH]c(=O)ccc23)cc1` (stereo not drawn) here?
**A.** 50.1 nM

**Q.** With `O=c1ccc2c(C(CO)NCCCCCCOCCCCc3ccccc3)ccc(O)c2[nH]1` (stereo not drawn) as the compound, how does the EC50 [1] read?
**A.** > 10000 nM

**Q.** What about the Ratio [5] of the same compound?
**A.** > 3.31

**Q.** And the EC50 ([8]; read-out: pEC50 (converted))?
**A.** 5.01 nM

**Q.** For `O=c1ccc2c(C(CO)NCCc3ccc(O)cc3)ccc(O)c2[nH]1` (stereo not drawn), which EC50 [1] is on record?
**A.** > 10000 nM

**Q.** What about the Intrinsic activity [2] of the same compound?
**A.** 46.3%

**Q.** And the Intrinsic activity [3]?
**A.** 98%

**Q.** And the EC50 [4]?
**A.** > 10000 nM

**Q.** What about the Ratio [5] of the same compound?
**A.** > 3.5

**Q.** And the pD2 [6]?
**A.** 7.98

**Q.** What about the Emax [7] of the same compound?
**A.** 250%

**Q.** What about the EC50 ([8]; read-out: pEC50 (converted)) of the same compound?
**A.** 3.16 nM

**Q.** With `O=c1ccc2c(C(CO)NCC(c3ccccc3)c3ccccc3)ccc(O)c2[nH]1` (stereo not drawn) as the compound, how does the EC50 ([8]; read-out: pEC50 (converted)) read?
**A.** 631 nM

**Q.** For `O=c1ccc2c(C(CO)NCCc3cccc(Cl)c3)ccc(O)c2[nH]1` (stereo not drawn), which EC50 [1] is on record?
**A.** 3160 nM

**Q.** What about the Ratio [5] of the same compound?
**A.** 3.05

**Q.** What about the EC50 ([8]; read-out: pEC50 (converted)) of the same compound?
**A.** 2.51 nM

**Q.** For `CCCCC(=O)Nc1ccc(CCNC(CO)c2ccc(O)c3[nH]c(=O)ccc23)cc1` (stereo not drawn), which EC50 ([8]; read-out: pEC50 (converted)) is on record?
**A.** 316 nM

**Q.** With `O=c1ccc2c([C@H](CO)NCCc3ccc(O)cc3)ccc(O)c2[nH]1` as the compound, how does the EC50 ([8]; read-out: EC50) read?
**A.** 328 nM

**Q.** What does the source list for `O=c1ccc2c(C(CO)NCCc3ccccc3Cl)ccc(O)c2[nH]1` (stereo not drawn)?
**A.** EC50 [1]: > 10000 nM; Ratio [5]: > 3.66; EC50 ([8]; read-out: pEC50 (converted)): 2 nM

**Q.** With `O=C(Nc1ccc(CCNC(CO)c2ccc(O)c3[nH]c(=O)ccc23)cc1)c1ccccc1` (stereo not drawn) as the compound, how does the EC50 ([8]; read-out: pEC50 (converted)) read?
**A.** 50.1 nM

**Q.** Which EC50 ([8]; read-out: pEC50 (converted)) does the source give for `Nc1ccc(CCNC(CO)c2ccc(O)c3[nH]c(=O)ccc23)cc1` (stereo not drawn) here?
**A.** 79.4 nM

**Q.** For `COc1cccc(CCNC(CO)c2ccc(O)c3[nH]c(=O)ccc23)c1` (stereo not drawn), which EC50 [1] is on record?
**A.** 631 nM

**Q.** And the Intrinsic activity [2]?
**A.** 52.5%

**Q.** What about the Ratio [5] of the same compound?
**A.** 2.62

**Q.** And the EC50 ([8]; read-out: pEC50 (converted))?
**A.** 2 nM

**Q.** Which EC50 ([8]; read-out: pEC50 (converted)) does the source give for `CC(C)CC(=O)Nc1ccc(CCNC(CO)c2ccc(O)c3[nH]c(=O)ccc23)cc1` (stereo not drawn) here?
**A.** 631 nM

**Q.** For `CC(C)NCC(O)c1ccc(O)c(O)c1` (stereo not drawn) [ISOPROTERENOL], which half-life at 10 µM [9] is on record?
**A.** 0.205 h

**Q.** What about the CLint scaled at 10 µM [10] of the same compound?
**A.** 112 mL/min/kg

**Q.** And the Emax [7]?
**A.** 254%

**Q.** Which EC50 [1] does the source give for `O=c1ccc2c(C(CO)NCCc3ccccc3O)ccc(O)c2[nH]1` (stereo not drawn) here?
**A.** > 10000 nM

**Q.** What about the Intrinsic activity [2] of the same compound?
**A.** 54.2%

**Q.** And the Ratio [5]?
**A.** > 3.03

**Q.** And the EC50 ([8]; read-out: pEC50 (converted))?
**A.** 10 nM

**Q.** Which Papp B→A at 2 h, 2 µM [11] does the source give for `O=c1ccc2c([C@@H](CO)NCCc3ccc(O)cc3)ccc(O)c2[nH]1` here?
**A.** 0.74 ×10⁻⁶ cm/s

**Q.** And the half-life at 10 µM [9]?
**A.** 1.81 h

**Q.** What about the CLint scaled at 10 µM [10] of the same compound?
**A.** 11.5 mL/min/kg

**Q.** What about the Papp A→B at 2 h, 2 µM [12] of the same compound?
**A.** 0.43 ×10⁻⁶ cm/s

**Q.** And the EC50 ([8]; read-out: EC50)?
**A.** 1.26 nM

**Q.** For `O=c1ccc2c(C(CO)NCCc3c[nH]c4ccccc34)ccc(O)c2[nH]1` (stereo not drawn), which EC50 ([8]; read-out: pEC50 (converted)) is on record?
**A.** 316 nM

**Q.** For `COc1ccccc1CCNC(CO)c1ccc(O)c2[nH]c(=O)ccc12` (stereo not drawn), which EC50 [1] is on record?
**A.** > 10000 nM

**Q.** And the Intrinsic activity [2]?
**A.** 48.6%

**Q.** What about the Intrinsic activity [3] of the same compound?
**A.** 44%

**Q.** What about the EC50 [4] of the same compound?
**A.** > 10000 nM

**Q.** And the Ratio [5]?
**A.** > 3.3

**Q.** What about the pD2 [6] of the same compound?
**A.** 6.03

**Q.** What about the Emax [7] of the same compound?
**A.** 111%

**Q.** And the EC50 ([8]; read-out: pEC50 (converted))?
**A.** 5.01 nM

**Q.** Which EC50 [1] does the source give for `CC(C)(Cc1ccccc1)NC(CO)c1ccc(O)c2[nH]c(=O)ccc12` (stereo not drawn) here?
**A.** > 10000 nM

**Q.** What about the Ratio [5] of the same compound?
**A.** > 2.28

**Q.** And the EC50 ([8]; read-out: pEC50 (converted))?
**A.** 50.1 nM

**Q.** For `CCc1cc2c(cc1CC)CC(NC(CO)c1ccc(O)c3[nH]c(=O)ccc13)C2` (stereo not drawn), which EC50 ([8]; read-out: pEC50 (converted)) is on record?
**A.** 316 nM

**Q.** With `COc1ccc(CCNC(CO)c2ccc(O)c3[nH]c(=O)ccc23)cc1` (stereo not drawn) as the compound, how does the EC50 [1] read?
**A.** > 10000 nM

**Q.** And the Ratio [5]?
**A.** > 2.71

**Q.** And the EC50 ([8]; read-out: pEC50 (converted))?
**A.** 20 nM

**Q.** For `O=c1ccc2c(C(CO)NCCc3cccc(O)c3)ccc(O)c2[nH]1` (stereo not drawn), which EC50 ([8]; read-out: pEC50 (converted)) is on record?
**A.** 794 nM

**Q.** For `O=c1ccc2c(C(CO)NCCCCOCCCCc3ccccc3)ccc(O)c2[nH]1` (stereo not drawn), which EC50 ([8]; read-out: pEC50 (converted)) is on record?
**A.** 251 nM

**Q.** For `O=C(Cc1ccccc1)Nc1ccc(CCNC(CO)c2ccc(O)c3[nH]c(=O)ccc23)cc1` (stereo not drawn), which EC50 ([8]; read-out: pEC50 (converted)) is on record?
**A.** 3.98 nM

**Q.** Which results are given for `O=c1ccc2c(C(CO)NCCCCc3ccccc3)ccc(O)c2[nH]1` (stereo not drawn)?
**A.** EC50 [1]: > 10000 nM; Ratio [5]: > 2.86; EC50 ([8]; read-out: pEC50 (converted)): 12.6 nM
